The source of these data is patent US7943628B2, “Pyrimidine derivatives” (Pfizer Limited, priority 2005, dated 2011).

In general, Ki refers to a dissociation constant, usually derived from enzyme kinetics or from competition with a known ligand. As a reminder, the inhibition is the drop in the measured response relative to a control, in per cent. A low value points to a weak effect.

Counter-ions that a name gives are not always drawn.

The target of this test is T1, histamine H4 receptor (Homo sapiens, UniProt Q9H3N8).
T1 construct: expressed in transfected cells; host or cells: CHO cells
Nature of the test: H4 binding, method 1 ([3H]-histamine filtration binding on CHO cell membranes). Conditions: for Ki: H4 binding, method 1, Ki calculated from IC50 (Cheng-Prussoff); for inhibition at 20 µM / inhibition at 10 µM: 1.5 h. Here is the method:
Cell pellets from CHO cells expressing the histamine H4 receptor were homogenised in ice-cold 50 mM Tris-HCl/0.5 mM CaCl2 buffer containing a protease inhibitor cocktail (Roche®, United Kingdom) using a ground glass homogeniser. Homogenates were centrifuged at 48000 g for 30 min at 4° C. The membrane pellet was resuspended in fresh buffer and the centrifugation step was repeated as described above. The membrane pellet was resuspended in 50 mM Tris-HCl in the same volume as the original cell pellet. Aliquots of membrane preparations were stored at −80° C. and were used for [^3H]-Histamine binding experiments.
Cell membranes (20-35 μg/well) were incubated for 90 minutes shaking at room temperature with 3 nM [2,5-^3H]Histamine dihydrochloride (30-60 Ci/mmol) in 50 mM Tris-HCl (pH 7.4), with or without competing H4 ligands. The reaction was terminated by rapid filtration through 0.5% polyethylenimine-soaked Unifilter GF/B plates (Packard) followed by three washes with 1 ml ice-cold 50 mM Tris-HCl. Filters were dried for 45 min at 45° C. and bound radiolabel was determined using scintillation counting techniques. Non-specific binding was defined with 10 μM JNJ7777120.

T1 sequence (Q9H3N8 whole entry): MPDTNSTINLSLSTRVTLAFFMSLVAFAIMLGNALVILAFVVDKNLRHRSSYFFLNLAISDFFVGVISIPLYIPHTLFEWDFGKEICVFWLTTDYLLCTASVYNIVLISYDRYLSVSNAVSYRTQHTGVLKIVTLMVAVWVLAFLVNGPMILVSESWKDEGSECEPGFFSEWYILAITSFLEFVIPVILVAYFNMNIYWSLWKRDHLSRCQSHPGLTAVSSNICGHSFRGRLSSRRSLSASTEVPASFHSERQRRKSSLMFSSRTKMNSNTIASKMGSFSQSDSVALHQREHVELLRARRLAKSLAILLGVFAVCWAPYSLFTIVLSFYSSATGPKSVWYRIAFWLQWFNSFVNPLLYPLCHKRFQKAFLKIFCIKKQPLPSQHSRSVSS

As to `CCCNc1cc(N2CCC(N)CC2)nc(N)n1` [Example 266, 6-(4-Aminopiperidin-1-yl)-N^4-propylpyrimidine-2,4-diamine], the Ki was 708 nM.
Same read-out and setting: in the case of `NCCNc1cc(NCC2CC2)ncn1` [Example 220, N-(2-Aminoethyl)-N′-(cyclopropylmethyl)pyrimidine-4,6-diamine] it was 88 nM; in that of `CN[C@@H]1CCN(c2cc(NCc3cc(F)cc(F)c3)nc(N)n2)C1` [Example 273, N^4-(3,5-Difluorobenzyl)-6-[(3R)-3-(methylamino)pyrrolidin-1-yl]pyrimidine-2,4-diamine], 950 nM; in that of `CCC(C)Nc1cc(N2CC(NC)C2)ncn1` (stereo not shown) [Example 153, N-(sec-Butyl)-6-[3-(methylamino)azetidin-1-yl]pyrimidin-4-amine], 11.5 nM.
As for `CN1CCCN(c2cc(NCC(C)(C)C)ncn2)CC1` [Example 239, N-(2,2-Dimethylpropyl)-6-(4-methyl-1,4-diazepan-1-yl)pyrimidin-4-amine], the Ki is 235 nM.
Same read-out and setting: in the case of `Nc1nc(NC2CC2)cc(N2CCC3NCCC3C2)n1` (stereo not drawn) [Example 172, N^4-Cycopropyl-6-[(3aR*,7aS*)-octahydro-5H-pyrrolo[3,2-c]pyridin-5-yl]pyrimidine-2,4-diamine] it was 9.3 nM.
Consider `CN[C@@H]1CCN(c2cc(NCc3ccc(F)cc3F)nc(N)n2)C1` [Example 325, N^4-(2,4-Difluorobenzyl)-6-[(3R)-3-(methylamino)pyrrolidin-1-yl]pyrimidine-2,4-diamine], for which at 20 µM the inhibition was 43%.
As for `CNC1CN(c2cc(NCC(C)(C)C)nc(N)n2)C1` [Example 159, N^4-(2,2-Dimethylpropyl)-6-[3-(methylamino)azetidin-1-yl]pyrimidine-2,4-diamine hydrochloride], the inhibition constant Ki is 2.62 nM.
Same read-out and setting: in the case of `CNC1CN(c2cc(N[C@@H](C)C(C)C)nc(N)n2)C1` [Example 129, N^4-[(1S)-1,2-Dimethylpropyl]-6-[3-(methylamino)azetidin-1-yl]pyrimidine-2,4-diamine] it was 3.78 nM.
Molecule `CNC1CCCN(c2cc(NCC3CC3)nc(N)n2)C1` (stereo not shown) [Example 294, N^4-(Cyclopropylmethyl)-6-[3-(methylamino)piperidin-1-yl]pyrimidine-2,4-diamine] displayed an inhibition at 20 µM of 91%.
`CN1CC[C@H](Nc2cc(NCCC(C)(C)C)ncn2)C1` [Example 296, N-(3,3-Dimethylbutyl)-N′-[(3S)-1-methylpyrrolidin-3-yl]pyrimidine-4,6-diamine]: the Ki is 3300 nM.
Still for that read-out and setting: in the case of `CN[C@@H]1CCN(c2cc(NC3CC3)nc(N)n2)C1` [Example 256, N^4-Cyclopropyl-6-[(3R)-3-(methylamino)pyrrolidin-1-yl]pyrimidine-2,4-diamine] it was 501 nM; in that of `CC(C)CNc1cc(N2CCCNCC2)nc(N)n1` [Example 133, 6-(1,4-Diazepan-1-yl)-N^4-isobutylpyrimidine-2,4-diamine], 0.653 nM.
Turning to `C[C@H]1CN(c2cc(NCC3CC3)nc(N)n2)CCN1` [Example 184, N^4-(Cyclopropylmethyl)-6-[(3S)-3-methylpiperazin-1-yl]pyrimidine-2,4-diamine], the Ki is 20.4 nM.
Still for that read-out and setting: as for `CC1(N)CCN(c2cc(NCC3CC3)nc(N)n2)C1` (stereo not shown) [Example 246, 6-(3-Amino-3-methylpyrrolidin-1-yl)-N^4-(cyclopropylmethyl)pyrimidine-2,4-diamine], the figure is 301 nM.
The molecule `CC(C)(C)CCNc1cc(N[C@H]2CCN(Cc3ccccc3)C2)ncn1` [Example 289, N-[(3S)-1-Benzylpyrrolidin-3-yl]-N′-(3,3-dimethylbutyl)pyrimidine-4,6-diamine] returned an inhibition at 10 µM of 44%.
For the molecule `Nc1nc(NC2CCC2)cc(N2C[C@H]3CCCN[C@H]3C2)n1` [Example 230, N^4-Cyclobutyl-6-[(4aR,7aR)-octahydro-6H-pyrrolo[3,4-b]pyridin-6-yl]pyrimidine-2,4-diamine], the Ki was 127 nM.
The same measure, in the same setting: in the case of `CN1C[C@@H]2C[C@H]1CN2c1cc(NCC(C)(C)C)nc(N)n1` [Example 191, N^4-(2,2-Dimethylpropyl)-6-[(1S,4S)-5-methyl-2,5-diazabicyclo[2.2.1]hept-2-yl]pyrimidine-2,4-diamine] it was 28.2 nM.
On the same count and under the same terms, as for `Nc1nc(NCc2cccc(F)c2F)cc(N2CC[C@@H](N)C2)n1` [Example 255, 6-[(3R)-3-Aminopyrrolidin-1-yl]-N^4-(2,3-difluorobenzyl)pyrimidine-2,4-diamine], the figure is 452 nM; as for `CN[C@@H]1CCN(c2cc(NC(C)(C)C)nc(N)n2)C1` [Example 148, N^4-(tert-Butyl)-6-[(3R)-3-(methylamino)pyrrolidin-1-yl]pyrimidine-2,4-diamine], 4.89 nM; as for `CCNc1cc(N2CC(NC)C2)nc(N)n1` [Example 70, N^4-Ethyl-6-[3-(methylamino)azetidin-1-yl]pyrimidine-2,4-diamine], 3.79 nM.
On the same count and under the same terms, in the case of `CN(C)C1CN(c2cc(NCCC(C)(C)C)ncn2)C1` [Example 4, 6-[3-(Dimethylamino)azetidin-1-yl]-N-(3,3-dimethylbutyl)pyrimidin-4-amine] it was 374 nM.
Turning to `CN[C@@H]1CCN(c2cc(NCc3cccc(F)c3)nc(N)n2)C1` [Example 249, N^4-(3-Fluorobenzyl)-6-[(3R)-3-(methylamino)pyrrolidin-1-yl]pyrimidine-2,4-diamine], the inhibitory constant (Ki) is 343 nM.
For the molecule `CNC1CN(c2cc(NCc3c(F)cccc3F)nc(N)n2)C1` [Example 317, N^4-(2,6-Difluorobenzyl)-6-[3-(methylamino)azetidin-1-yl]pyrimidine-2,4-diamine], the “Method 1, activity at top dose (10 μM)” value (top dose 10 μM) is “No activity at top”.
On to `CNc1cc(N2CC[C@@H](NC)C2)ncn1` [Example 262, N-Methyl-6-[(3R)-3-(methylamino)pyrrolidin-1-yl]pyrimidin-4-amine], for which the Ki is 623 nM.
As to `CC(C)Nc1cc(N2CC[C@@H]3NCC[C@@H]3C2)nc(N)n1` (racemic) [Example 137, N^4-Isopropyl-6-[(3aR*,7aS*)-octahydro-5H-pyrrolo[3,2-c]pyridin-5-yl]pyrimidine-2,4-diamine], the Ki is 8.25 nM.
Still for that read-out and setting: as for `CN[C@@H]1CCN(c2cc(NCC(C)(C)C)ncn2)C1` [Example 183, N-(2,2-Dimethylpropyl)-6-[(3R)-3-(methylamino)pyrrolidin-1-yl]pyrimidin-4-amine], the figure is 20 nM; as for `CCCNc1cc(N2CC(C)(NC)C2)nc(N)n1` [Example 140, 6-[3-Methyl-3-(methylamino)azetidin-1-yl]-N^4-propylpyrimidine-2,4-diamine], 12.1 nM; as for `CCNc1cc(N2CC(NC)C2)nc(N)n1` [Example 164, N^4-Ethyl-6-[3-(methylamino)azetidin-1-yl]pyrimidine-2,4-diamine], 3.82 nM.
In turn, `CC(C)(C)CCNc1cc(N2CCN(CCO)CC2)ncn1` [Example 307, 2-(4-{6-[(3,3-Dimethylbutyl)amino]pyrimidin-4-yl}piperazin-1-yl)ethanol] registered an inhibition at 10 µM of 24%.
With `CCCCNc1cc(N2CC(NC)C2)nc(N)n1` [Example 132, N^4-Butyl-6-[3-(methylamino)azetidin-1-yl]pyrimidine-2,4-diamine], the Ki was 0.791 nM.
The same measure, in the same setting: in the case of `CC(C)(C)Nc1cc(N2C[C@@H]3CCCN[C@@H]3C2)nc(N)n1` (relative stereo) [Example 150, N^4-(tert-Butyl)-6-[(4aS*,7aS*)-octahydro-6H-pyrrolo[3,4-b]pyridin-6-yl]pyrimidine-2,4-diamine] it was 11.8 nM; in that of `CN[C@@H]1CCN(c2cc(NCc3ccccc3F)nc(N)n2)C1` [Example 253, N^4-(2-Fluorobenzyl)-6-[(3R)-3-(methylamino)pyrrolidin-1-yl]pyrimidine-2,4-diamine], 380 nM; in that of `CC(C)NC1CN(c2cc(NCC(C)(C)C)ncn2)C1` [Example 226, N-(2,2-Dimethylpropyl)-6-[3-(isopropylamino)azetidin-1-yl]pyrimidin-4-amine], 113 nM.
Still for that read-out and setting: in the case of `CNCC1CN(c2cc(NCC(C)(C)C)nc(N)n2)C1` [Example 209, N^4-(2,2-Dimethylpropyl)-6-{3-[(methylamino)methyl]azetidin-1-yl}pyrimidine-2,4-diamine] it was 46.4 nM; in that of `CNC1CN(c2cc(NC(C)(C)C)nc(N)n2)C1` [Example 168, N^4-(tert-Butyl)-6-[3-(methylamino)azetidin-1-yl]pyrimidine-2,4-diamine], 6.5 nM.
Still for that read-out and setting: as for `CNC1CN(c2cc(N[C@H](C)C(C)C)nc(N)n2)C1` [Example 160, N^4-[(1R)-1,2-Dimethylpropyl]-6-[3-(methylamino)azetidin-1-yl]pyrimidine-2,4-diamine], the figure is 2.65 nM; as for `CCCNc1cc(N2CCNCC2)nc(N)n1` [Example 163, 6-Piperazin-1-yl-N^4-propylpyrimidine-2,4-diamine], 3.78 nM.
As to `CNC1CN(c2cc(N3CCOCC3)nc(N)n2)C1` [Example 268, 4-[3-(Methylamino)azetidin-1-yl]-6-morpholin-4-ylpyrimidin-2-amine], the inhibition at 10 µM came out at 16%.
As to `CNC1CN(c2cc(N3CCC(C)CC3)nc(N)n2)C1` [Example 173, 4-[3-(Methylamino)azetidin-1-yl]-6-(4-methylpiperidin-1-yl)pyrimidin-2-amine], the Ki was 10.1 nM.
